Assay [1] addresses T1, glutathione S-transferase (GST)-linked full-length human Syk protein (Homo sapiens, UniProt P43405).
T1 construct: glutathione S-transferase (GST)-linked full-length human Syk protein; purchased Carna Biosciences; host or cells: Baculovirus expression system
Kind of assay: Syk enzyme assay. In kind it is biochemical. The conditions noted are these: 0.83 nM Syk, time-resolved fluorescence; read-out: IC50 of Syk-inhibitory activity. In a few lines:
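Phosphotyrosine on a biotin-peptide substrate (0.5 μM) was read by time-resolved fluorescence at 615 and 665 nm with Eu-anti-pTyr antibody and APC-streptavidin after 1 h EDTA stop.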

Assay [2] concerns 191 types of kinases excluding Syk. Kind of assay: Selectivity of kinase inhibition (Profiler Pro kits). In kind it is biochemical. The conditions noted are these: test compound 100 nM; 191 kinases excluding Syk. As to the method:
The concentrations of test compounds were adjusted to 100 nM. The test compounds were examined using Profiler Pro kits (Caliper) in terms of activity against each of 191 types of kinases excluding Syk.

For assay [3], the system named is THP-1 cells (TNFα secretion on human IgG-coated plate). The assay can be described thus: TNFα generation assay. In kind it is cell-based. Conditions: IFN-γ differentiated THP-1 cells, 7 hours, AlphaLISA, read-out: IC50 of TNFα generation inhibitory activity. The method, boiled down:
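THP-1 cells were differentiated with 10 ng/ml IFN-γ for 2 days, then preincubated with compound for 30 min at room temperature. They were then plated at 5×10^4 cells/well on plates coated with human IgG (10 μg/ml). TNFα secreted over 7 h of culture was quantified by AlphaLISA.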

Assay [4] relates to THP-1 cells (phagocytosis of opsonized Escherichia coli). The assay can be described thus: Antibody-dependent phagocytosis assay. In kind it is cell-based. The conditions noted are these: Homo sapiens; IFNγ differentiated THP-1 cells, opsonized pHrodo Escherichia coli, 3 hours; read-out: IC50 upon phagocytosis inhibition. In a few lines: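 THP-1 cells were differentiated to macrophage-like cells with 10 ng/ml IFNγ for 2 days, then treated with test compound for 30 min at room temperature. pHrodo-labeled E. coli opsonized with anti-E. coli antibody were added for 3 h at 37° C. Phagocytosis by viable (Calcein AM-positive) cells was quantified by imaging.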

The subject of assay [5] is rat type II collagen arthritis. Kind of assay: Rat type II collagen-induced arthritis. In kind it is in vivo. Conditions: female Lewis rats, oral administration 10 mg/kg/day, Day 7 to Day 20 once daily, Student's t-test. The method, then: The compounds were tested to examine effects upon rat type II collagen arthritis. Equivalent volumes of 0.05 mol/L acetic acid in which a 3 mg/mL bovine type II collagen solution (Collagen Gijutsu Kenshu-Kai) had been dissolved and Freund's incomplete adjuvant (Wako Pure Chemical Industries, Ltd.) were mixed to prepare an emulsion. A portion of the emulsion (0.5 ml) was intradermally injected into the tail bases of 6- to 8-week-old female Lewis rats (Charles River Laboratories Japan, Inc.) (Day 0). Each rat was subjected to the same treatment on Day 7 after the initial inoculation so as to induce arthritis. Each test compound was orally administered from Day 7 to Day 20 once daily. At a given time during the period from Day 7 to Day 21, the rat hindlimb volume was determined using a plethysmometer (UGO BASILE), and the result was designated as an arthritis index.

The test system of assay [6] is mouse thrombocytopenia induced by anti-mouse CD41 antibody. The assay can be described thus: Mouse thrombocytopenia model. In kind it is in vivo. The conditions noted are these: Platelet, female BALB/c mice, 50 mg/kg 1 hour before anti-CD41 antibody, blood sampling 4 hours after antibody, read-out: improvement of platelet count compared with the control group. The method, then: Test compounds were tested to examine effects upon mouse thrombocytopenia. Each test compound (50 mg/kg) was administered to 5- to 7-week-old female BALB/c mice (Charles River Laboratories Japan, Inc.). One hour thereafter, an anti-mouse CD41 ([…]) antibody (SCB) (1 μg (200 μl)) was intravenously administered to each mouse so as to induce thrombocytopenia. Four hours after administration of the anti-CD41 antibody, blood sampling from the postcava was performed. The platelet count was determined using an automated hematology analyzer.

Molecules are shown by their SMILES. Counter-ions that a name gives are not always drawn.

`C[C@H](N)[C@H](Nc1nc(Nc2cnc(N3CCOCC3)c(F)c2)c(C(N)=O)cc1F)C1CC1` [Example 2-76, 6-(((1R,2S)-2-amino-1-cyclopropylpropyl)amino)-5-fluoro-2-((5-fluoro-6-morpholinopyridin-3-yl)amino)nicotinamide]: the figures for the IC50 in assay [1], in assay [3] and in assay [4] were 0.01 to 0.05 µM, 0.13 to 0.2 µM and 1 to 3 µM, respectively. For the same compound, the “number of kinases other than Syk with kinase inhibitory rate of 75% or more” value in assay [2] was 8 types of kinases. In addition, the “hindlimb swelling on Day 20 compared with the control group” value in assay [5] was “significantly inhibited hindlimb swelling”. For the same compound, the change in vivo at 50 mg/kg in assay [6] is at least 50%.
`COC[C@@H](Nc1nc(Nc2cc(OC)cc(OC)c2)c(C(N)=O)cc1F)[C@H](C)N` [Example 2-267, 6-(((2S,3S)-3-amino-1-methoxybutan-2-yl)amino)-2-((3,5-dimethoxyphenyl)amino)-5-fluoronicotinamide]: the IC50 was under 0.01 µM in assay [1], 0.065 to 0.13 µM in assay [3] and 1 to 3 µM in assay [4]. For the same compound, in assay [6], the change in vivo at 50 mg/kg was at least 50%.
For the compound `COCCn1ncc2cc(Nc3nc(N[C@H](C4CC4)[C@H](C)N)c(F)cc3C(N)=O)ccc21` [Example 2-265, 6-(((1R,2S)-2-amino-1-cyclopropylpropyl)amino)-5-fluoro-2-((1-(2-methoxyethyl)-1H-indazol-5-yl)amino)nicotinamide], the IC50 in assay [1] is under 0.01 µM; in assay [3], 0.065 to 0.13 µM; in assay [4], under 1 µM. Besides, the change in vivo at 50 mg/kg in assay [6] was at least 50%.
The matching figures for `C[C@H](N)[C@H](Nc1nc(Nc2cc(F)c3c(c2)c(N(C)C)nn3C)c(C(N)=O)cc1F)C1CC1` [Example 2-188, 6-(((1R,2S)-2-amino-1-cyclopropylpropyl)amino)-2-((3-(dimethylamino)-7-fluoro-1-methyl-1H-indazol-5-yl)amino)-5-fluoronicotinamide]: under 0.01 µM, under 0.065 µM, under 1 µM and at least 50%.
With `CN(C)c1nn(C)c2ccc(Nc3nc(N[C@@H]4CCCC[C@@H]4N)c(F)cc3C(N)=O)cc12` [Example 2-1, 6-(((1R,2S)-2-aminocyclohexyl)amino)-2-((3-(dimethylamino)-1-methyl-1H-indazol-5-yl)amino)-5-fluoronicotinamide], the IC50 in assay [1] is under 0.01 µM; in assay [3], 0.065 to 0.13 µM; in assay [4], under 1 µM. The “hindlimb swelling on Day 20 compared with the control group” value in assay [5] is “significantly inhibited hindlimb swelling”. Also, the change in vivo at 50 mg/kg in assay [6] is at least 50%.
As for `COc1ccc(Nc2nc(N[C@H](C3CC3)[C@H](C)N)c(F)cc2C(N)=O)cc1OC` [Example 2-48, 6-(((1R,2S)-2-amino-1-cyclopropylpropyl)amino)-2-((3,4-dimethoxyphenyl)amino)-5-fluoronicotinamide], the IC50 is under 0.01 µM in assay [1], 0.065 to 0.13 µM in assay [3] and under 1 µM in assay [4]. Also, the change in vivo at 50 mg/kg in assay [6] is at least 50%.
For the compound `CCn1ncc2c(Nc3nc(N[C@@H]4CCOC[C@@H]4N)c(F)cc3C(N)=O)cccc21` [Example 2-330, 6-(((3R,4R)-3-aminotetrahydro-2H-pyran-4-yl)-amino)-2-((1-ethyl-1H-indazol-4-yl)amino)-5-fluoronicotinamide], the results for the IC50 in assay [1], in assay [3] and in assay [4] were under 0.01 µM, 0.065 to 0.13 µM and under 1 µM, respectively. Besides, the change in vivo at 50 mg/kg in assay [6] is at least 50%.
The matching figures for `COC[C@@H](Nc1nc(Nc2cc(F)c3c(c2)c(N(C)C)nn3C)c(C(N)=O)cc1F)[C@H](C)N` [Example 2-193, 6-(((2S,3S)-3-amino-1-methoxybutan-2-yl)amino)-2-((3-(dimethylamino)-7-fluoro-1-methyl-1H-indazol-5-yl)amino)-5-fluoronicotinamide]: 0.01 to 0.05 µM, 0.13 to 0.2 µM, 1 to 3 µM and at least 50%.
The matching figures for `CC[C@H](N)[C@@H](C)Nc1nc(Nc2ccc3c(c2)c(N(C)C)nn3C)c(C(N)=O)cc1F` [Example 2-91, 6-(((2R,3S)-3-aminopentan-2-yl)amino)-2-((3-(dimethylamino)-1-methyl-1H-indazol-5-yl)amino)-5-fluoronicotinamide]: 0.01 to 0.05 µM, 0.13 to 0.2 µM, 1 to 3 µM and at least 50%.
In the case of `COCCn1nc(OC(F)F)c2cc(Nc3nc(N[C@@H]4CCCC[C@@H]4N)c(F)cc3C(N)=O)ccc21` [Example 2-174, 6-(((1R,2S)-2-aminocyclohexyl)amino)-2-((3-(difluoromethoxy)-1-(2-methoxyethyl)-1H-indazol-5-yl)amino)-5-fluoronicotinamide], the IC50 in assay [1] is under 0.01 µM; in assay [3], 0.13 to 0.2 µM; in assay [4], under 1 µM. Moreover, the change in vivo at 50 mg/kg in assay [6] was at least 50%.
As for `CC[C@H](N)[C@@H](C)Nc1nc(Nc2cccc3c2cnn3CC)c(C(N)=O)cc1F` [Example 2-100, 6-(((2R,3S)-3-aminopentan-2-yl)amino)-2-((1-ethyl-1H-indazol-4-yl)amino)-5-fluoronicotinamide], the IC50 in assay [1] was under 0.01 µM; in assay [3] it was 0.13 to 0.2 µM; in assay [4], 1 to 3 µM. The change in vivo at 50 mg/kg in assay [6] was at least 50%.
For the compound `Cc1cc(Nc2nc(N[C@H](CC(C)C)[C@H](C)N)c(F)cc2C(N)=O)cnc1C` [Example 2-18, 6-(((2S,3R)-2-amino-5-methylhexan-3-yl)amino)-2-((5,6-dimethylpyridin-3-yl)amino)-5-fluoronicotinamide], the IC50 is under 0.01 µM in assay [1], 0.065 to 0.13 µM in assay [3] and under 1 µM in assay [4]. Further, the change in vivo at 50 mg/kg in assay [6] is at least 50%.
For the compound `CN(C)c1nn(C)c2c(F)cc(Nc3nc(N[C@@H]4CCCC[C@@H]4N)c(F)cc3C(N)=O)cc12` [Example 2-184, 6-(((1R,2S)-2-aminocyclohexyl)amino)-2-((3-(dimethylamino)-7-fluoro-1-methyl-1H-indazole-5-yl)amino)-5-fluoronicotinamide hydrochloride], the IC50 in assay [1] is under 0.01 µM; in assay [3], 0.065 to 0.13 µM; in assay [4], under 1 µM. For the same compound, in assay [5], the “hindlimb swelling on Day 20 compared with the control group” value is listed as “significantly inhibited hindlimb swelling”. In addition, the change in vivo at 50 mg/kg in assay [6] was at least 50%.

Values taken from US9051310B2, “Nicotinamide derivative or salt thereof” (FUJIFILM Corporation, priority 2011, dated 2015).
